Test results: ChEMBL document CHEMBL1156548, “Determination and characterization of new benzimidazoles with activity against Trypanosoma cruzi by UV spectroscopy and HPLC” (Bioorg Med Chem, 2008)

How the values were obtained:
[1] = Ionisation constant, pKa corresponding to weak base of […] benzimidazole ring; assay type: physicochemical
[2] = Ionisation constant, pKa corresponding to acid proton of […] benzimidazole ring; assay type: physicochemical
[3] = Partition coefficient, log P of the compound; assay type: physicochemical; conditions: octanol/water
[4] = Effective permeability by HPLC-based PAMPA; assay type: ADME; conditions: read-out: permeability
Trypanosoma cruzi [5] = test: Antiparasitic activity against Trypanosoma cruzi MF epimastigotes after 7 days by nephelometry; assay type: functional, organism-based; conditions: 168 h
Trypanosoma cruzi [6] = test: Inhibition of oxygen uptake in Trypanosoma cruzi MF epimastigotes at 300 uM by polarography; assay type: functional
[7] = Effective permeability by UV-based PAMPA; assay type: ADME; conditions: read-out: permeability
[8] = Ionisation constant, pKa of the compound; assay type: physicochemical

## O=[N+]([O-])c1ccccc1-c1nc2ccccc2[nH]1
[1]
  pKa: 5.69
[2]
  pKa: 11.4
[3]
  logP: 2.2
[4]
  Papp: 8 ×10⁻⁶ cm/s
Trypanosoma cruzi [5]
  IC50: 117 µM
Trypanosoma cruzi [6]
  inhibition at 300 µM: 40%
[7]
  Papp: 12 ×10⁻⁶ cm/s

## O=C(c1ccccc1)n1c(-c2ccccc2[N+](=O)[O-])nc2ccccc21
[8]
  pKa: 4.9
[3]
  logP: 3.1
Trypanosoma cruzi [5]
  IC50: 94 µM
Trypanosoma cruzi [6]
  inhibition at 300 µM: 20%

## O=C(c1ccc([N+](=O)[O-])cc1)n1c(-c2ccccc2[N+](=O)[O-])nc2ccccc21
[8]
  pKa: 4.79
[3]
  logP: 2.8
Trypanosoma cruzi [5]
  IC50: 80 µM

## COc1ccc(C(=O)n2c(-c3ccccc3[N+](=O)[O-])nc3ccccc32)cc1
[8]
  pKa: 4.71
[3]
  logP: 3.2
Trypanosoma cruzi [5]
  IC50: 64 µM

## O=C(c1ccc(Cl)cc1)n1c(-c2ccccc2[N+](=O)[O-])nc2ccccc21
[8]
  pKa: 4.69
[3]
  logP: 3.6
Trypanosoma cruzi [5]
  IC50: 78 µM
